From patent US20260317335A1, “COMPOUNDS OF FUSED PYRROLE RINGS OR FUSED PYRIDINE RINGS” (PHARMAENGINE, INC., priority 2023, published 2026)

test system: HCC1569 (CCNE1-amplified breast cancer cell line); experiment: Cell Proliferation Assay (CellTiter-Glo, 7 days); type: cell-based
Method: The sensitivity of cancer cell lines with normal or elevated CCNE1 levels to test compounds was evaluated in a cell proliferation assay. Cell lines were maintained in ATCC-recommended culture media supplemented with 10% FBS and 1% penicillin/streptomycin in a humidified 5% CO2 incubator. All test compounds were stored as 20 mM DMSO stock solutions.
On Day 0, CCNE1-wild type (wt) and CCNE1-amplified (amp) cells were seeded into 384-well plates and incubated for 16 to 24 hours in a humidified 5% CO2 incubator. On Day 1, test compounds were dispensed into wells at specified concentrations (n=2), with DMSO volume normalized to the highest concentration. Plates with compound-treated cells were incubated for 7 days in a humidified 5% CO2 incubator.
On Day 7, plates were removed from the incubator and equilibrated to room temperature. Relative inhibition was assessed by adding CellTiter-Glo reagent. Data were plotted as a percentage of the DMSO control for each compound in each cell line. IC50 values were calculated using a four-parameter nonlinear regression model (GraphPad Prism).

Row | SMILES | IC50 [nM]
1 | Cc1ccc2[nH]ncc2c1-n1c(N)c2c3c(c(C)c(C)nc31)C=CNC2=O [Compound 126] | 666
2 | Cc1nc2c3c(c1C)C=CNC(=O)c3c(N)n2-c1c(Cl)cc(F)c2[nH]ncc12 [Compound 136] | > 1000
3 | Cc1nc2c3c(c1C)C=CNC(=O)c3c(N)n2-c1c(Cl)c(F)cc2[nH]ncc12 [Compound 137] | 566
4 | Cc1nc2c3c(c1C)C=CNC(=O)c3c(N)n2-c1c(C)c(F)cc2[nH]ncc12 [Compound 138] | > 1000
5 | Cc1cc2c(C(N)=O)c(N)n(-c3c(C)ccc(O)c3C)c2nc1C [Rp6306, reference compound] | 18
